Experimental data: patent US12441706B2, “Protein degradation agent compound preparation method and application” (SHANGHAI JEMINCARE PHARMACEUTICALS CO., LTD., priority 2019, dated 2025)

Experiments:
androgen receptor = target: T1, androgen receptor (Homo sapiens, UniProt P10275, T878A); test: In-Cell-Western determination of androgen receptor degradation in LnCaP cells; type: cell-based; details: for Dmax: LNCaP; for DC50: concentration for half of the maximal degradation of AR in LnCaP cells, 24 hours treatment
T1 construct: endogenous in cells; host or cells: LNCaP cells
T1 sequence (P10275 1-920 T878A): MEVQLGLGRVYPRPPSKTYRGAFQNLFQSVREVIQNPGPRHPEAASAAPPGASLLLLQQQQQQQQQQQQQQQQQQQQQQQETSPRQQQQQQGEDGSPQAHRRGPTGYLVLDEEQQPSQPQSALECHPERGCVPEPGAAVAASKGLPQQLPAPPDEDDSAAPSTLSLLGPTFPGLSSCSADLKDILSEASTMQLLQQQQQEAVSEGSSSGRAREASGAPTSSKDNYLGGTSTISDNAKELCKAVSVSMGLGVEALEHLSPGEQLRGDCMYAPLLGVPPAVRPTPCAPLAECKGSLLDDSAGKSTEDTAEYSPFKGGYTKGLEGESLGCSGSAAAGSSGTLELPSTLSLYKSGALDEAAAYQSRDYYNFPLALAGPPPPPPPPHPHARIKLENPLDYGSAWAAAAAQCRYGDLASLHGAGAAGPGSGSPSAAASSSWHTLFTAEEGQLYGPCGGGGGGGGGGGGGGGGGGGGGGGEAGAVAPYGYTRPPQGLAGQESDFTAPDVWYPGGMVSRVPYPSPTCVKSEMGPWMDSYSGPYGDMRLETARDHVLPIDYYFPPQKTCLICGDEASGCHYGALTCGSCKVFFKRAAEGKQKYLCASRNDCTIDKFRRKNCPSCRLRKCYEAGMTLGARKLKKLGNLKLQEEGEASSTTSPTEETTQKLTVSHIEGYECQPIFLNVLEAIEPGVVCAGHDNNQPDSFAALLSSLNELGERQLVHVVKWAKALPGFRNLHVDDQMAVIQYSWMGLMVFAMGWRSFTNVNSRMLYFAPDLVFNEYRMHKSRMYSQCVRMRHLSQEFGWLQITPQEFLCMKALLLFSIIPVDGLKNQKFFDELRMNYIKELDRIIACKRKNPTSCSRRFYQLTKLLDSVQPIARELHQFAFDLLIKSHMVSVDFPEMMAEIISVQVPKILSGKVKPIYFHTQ
Description: The determination evaluated the properties of the compounds in Lncap cells. Intracellular androgen receptor was determined by In-Cell-Western according to the determination steps described below.
In poly-D-Lysin pretreated 96-well cell culture plate (Corning 3599), LNcap cells were divided into 100 μL/well volume, and inoculated with 30,000 cells/well in LNcap cell assay medium [DMEM containing phenol red (Gibco catalog number: 11995065); fetal bovine serum FBS (Gibco catalog number: 10099141C)]. Cells were cultured for at least two days.
1. First treated cells with compound. Compounds were gradient diluted with DMSO and cell culture medium, so that DMSO contained in cell culture plates was diluted to 0.5% —polypropylene plates were used according to the following protocol: (1)(i) 200× stock plate in DMSO was prepared; (ii) 10 mM stock solution was diluted 1:4 with DMSO (10 μL stock solution+40 μL DMSO)=2000 μM, then entered into row 2; (iii) 1:4 (10 μL protac+40 μL DMSO) gradient dilution was performed from row 2 to row 9, and row 1 was reserved for […] reference compound and row 10 for DMSO. (iv) A total of 8 concentrations (final concentrations on the 200× plate were 2000 μM, 400 μM and 80 μM, etc.). (2) (i) 3× stock solution was prepared in the medium. (ii) 3 μL of 200× stock solution was transferred to 197 µL of culture medium (using 12-channel pipette, from line 1 to line 10), i.e. 3× stock solution plate. (iii) The stock solution plate was mixed evenly. (3) (i) The culture medium of […] cells was replaced with fresh culture medium, 100 μL volume culture medium. (ii) The well-mixed 3× stock solution was transferred to the cell culture plate (using a 12-channel pipette, and 50 μL of stock solution was transferred from line 1 to line 10). (iii) Cells were cultured for 24 hours.
2. The expression level of intracellular androgen receptor after compound treatment was […] and determined according to the following method.
(1)(i) Equal volume of 8% paraformaldehyde was added to the cell culture plate for cell fixation. The fixing solution in the cell plate was discarded and washed three times with PBS. (ii) Triton solution (1:1000 dilution of the stock solution) was prepared. The solution in the cell plate was discarded, and 200 μL of Triton diluent was added into each well. (iii) 2×blocking solution (1:4 dilution of 10×blocking stock solution) was prepared. The solution in the cell plate was discarded, and 100 μL of 2×blocking solution was added into each well. (iv) Primary antibody solution (Androgen receptor Rabbbit mAb, Cell Signaling Technology catalog number: 5153; 1:1000 dilution) was prepared. The solution in the cell plate was discarded, 100 μL volume of primary antibody diluent was added to each well, and incubated at 4° C. overnight. (v) The primary antibody solution was discarded and the cell plate was washed with 1×Wash buffer. (vi) Secondary antibody solution (GOAT Antirabbit IgG (H+L), HRP, Thermo catalog number: 31460; 1:5000 dilution) was prepared, and 100 μL volume of secondary antibody dilution was added to each well for incubation. (vii) The secondary antibody solution in the cell plate was discarded and the cell plate was washed with 1×Wash buffer. (viii) TMB chromogenic solution (BD catalog number: 550534) was prepared, and 100 μL chromogenic solution was added into each well. (ix) 50 μL volume of stop solution (BD catalog number: 550534) was added to each well. (x) The absorption values at OD 450 nm and 570 nm were read though EnVision. (2) (i) Normalized analysis was performed on the number of cells in each well. The solution in the cell plate was discarded, and washed with wash buffer for three times. (ii) Janus dilution (1:3 dilution) was prepared. (iii) 50 μL volume diluent was added to each well for incubation. (iv) The solution in the plate was discarded and washed with deionized water. […]

LNcap FGC cells = test: Inhibition of proliferation of LNcap FGC cells (Cell Titer Glo, 6 days); type: cell-based; details: Homo sapiens, LNCaP, 144 h
Description: Tumor cell line LNcap FGC (ATCC catalog number CRL-1740) was cultured in RPMI 1640 (Gibco catalog number 11875-093) and DMEM (Gibco catalog number. 11965-092) medium containing 10% FBS (Gibco catalog number 10099-141C), respectively.
LNcap FGC cells were inoculated in a 384-well plate (Perkin Elmer catalog number 6007460) at a cell density of 400 cells/well in a volume of 20 μL/well and incubated overnight in a carbon dioxide incubator (Thermo). The prepared compound solutions of different concentrations were added in a volume of 5 μL/well. The corresponding vehicle control was set at the same time. After being cultured in the incubator for 6 days, the cell plate and the contents were equilibrated to room temperature, and 25 μL of Cell Titer Glor (Promega catalog number G7573) was added to each well, shook and mixed well, incubated in dark for 10-30 minutes, and the signal values were detected with Envision microplate reader (PerkinElmer).
The percentage inhibition rate of compound-treated wells was calculated from the vehicle control wells on the plate, and the percentage inhibition rate data corresponding to different concentrations were fitted by GraphPad prism, and the IC50 values were calculated by 4-parameter nonlinear logic formula.

Structure (SMILES): CC1(C)C(=O)N(c2ccc(C#N)c(Cl)c2)c2ccc(-c3ccc(N4CC(CN5CCN(c6ccc7c(c6)C(=O)N(C6CCC(=O)NC6=O)C7=O)CC5)C4)nc3F)cc21 (stereo not drawn) [Compound 14]
- Dmax (androgen receptor): 93%
- DC50 (androgen receptor): 66.3 nM
- Emax (LNcap FGC cells): 100%
- IC50 (LNcap FGC cells): 60.6 nM

Structure (SMILES): CC1(C)C(=O)N(c2ccc(C#N)c(C(F)(F)F)c2)c2ccc(-c3ccc(N4CC(CN5CCN(c6ccc7c(c6)C(=O)N(C6CCC(=O)NC6=O)C7=O)CC5)C4)cc3)cc21 (stereo not drawn) [Compound 3]
- Dmax (androgen receptor): 89%
- DC50 (androgen receptor): 87.1 nM
- Emax (LNcap FGC cells): 93%
- IC50 (LNcap FGC cells): 54.8 nM

Structure (SMILES): CC1(C)C(=O)N(c2ccc(C#N)c(Cl)c2)c2ccc(-c3ccc(N4CC(CN5CCN(c6ccc7c(c6)C(=O)N(C6CCC(=O)NC6=O)C7=O)CC5)C4)cc3)cc21 (stereo not drawn) [Compound 1]
- Dmax (androgen receptor): 82%
- DC50 (androgen receptor): 90.3 nM
- Emax (LNcap FGC cells): 91%
- IC50 (LNcap FGC cells): 66.1 nM
